Tests used:
[1] = tested on: human insulin promoter in HIT-T15 β-cells; assay: Insulin promoter (phINS-Luc) dual luciferase assay in HIT-T15 β-cells; assay type: cell-based, rat; settings: FIG. 6C
Description: FIGS. 4A-C show an increase in insulin mRNA and protein content by cytopiloyne in pancreatic islet cells. (A) HIT-T15 β-cells transfected with phINS-Luc and pRL-TK plasmids were incubated with vehicle (NS), glimepiride (GLM, 10 μM), high glucose (HG, 16.7 mM) or cytopiloyne at 7, 14 or 28 μM. Ten μg of cell lysates from these cells underwent to dual luciferase assays. […] (C) Rat pancreatic islet cells were treated with vehicle, glucose (3.3 mM (LG) or 16.7 mM (HG)) or cytopiloyne (CP, 7, 14 and 28 μM) in the presence of brefeldin A for 24 h. After anti-insulin antibody staining, these cells underwent FACS analysis. The percentage of insulin-positive β-cells is shown. All the results from 3 independent experiments are expressed as mean±SEM, and P<0.05 was considered to be statistically significant (*).
(A) RIN-M5F cells were grown in medium with 16.7 mM (HG) or 3.3 mM glucose (LG) in the presence of PMA. GF and cytopiloyne. The insulin level of the supernatants was determined using an ELISA kit. (B) RIN-M5F cells were transfected with 5 μg of dominant-negative PKCα or control plasmid grown in medium with 16.7 mM (HG) or 3.3 mM glucose (LG) in the presence of PMA (1 μM), GF109203X (3 μM) or cytopiloyne. The insulin level of the supernatants was determined using an ELISA kit. (C) HIT-T15 cells were transfected with phINS-Luc and pRL-TK plasmids. The cells were grown in medium with 16.7 mM (HG) or 3.3 mM glucose (LG) in the absence or presence of PMA, GF109203X and cytopiloyne. The cell lysates were subjected to dual luciferase assays. (D) HIT-T15 cells were transfected with vehicle or dominant-negative PKCα plasmid together with phINS-Luc and pRL-TK plasmids. The cells were grown in medium with 16.7 mM (HG) or 3.3 mM glucose (LG) in the absence or presence of PMA and cytopiloyne. The cell lysates were subjected to dual luciferase assays.
Plasmids phINS-Luc and pRL-TK contain a human insulin promoter (2347 bp) from phINS-DCR3 vector linked to a firefly luciferase gene and the thymidine kinase promoter linked to Renilla luciferase reporter gene, respectively. Dominant-negative PKCα, phINS-Luc and/or pRL-TK were transfected into HIT-T15 cells with lipofectamine or electroporation.

[2] = tested on: HIT-T15 cells; assay: Insulin secretion of β-cell line with PMA, GF109203X and cytopiloyne (ELISA); assay type: cell-based, rat; settings: FIG. 6A
[3] = tested on: adiponectin; assay: Real-time RT-PCR of adiponectin mRNA relative to GAPDH in 3T3-L1 cells; assay type: cell-based, mouse; settings: mouse, 8 days, 1 μM
[4] = tested on: adipocyte protein 2 (aP2); assay: Real-time RT-PCR of aP2 mRNA relative to GAPDH in 3T3-L1 cells; assay type: cell-based, mouse; settings: mouse, 8 days, 1 μM
[5] = tested on: PKCα; assay: PKCα translocation and phosphorylation (Western blot) in RIN-m5F cells; assay type: cell-based, rat; settings: PMA 1 μM, glucose 16.7 mM
Description: (§1) FIGS. 5A-D show the effects of cytopiloyne on calcium mobilization, DAG generation and PKCa activation. (A) After Fura 2-AM loading, RIN-m5F cells were stimulated with 16.7 mM glucose (HG) and cytopiloyne at 7, 14 and 28 μM. Level of intracellular calcium, as shown by the 340/380 nm ratio, was detected using a fluorescence spectrophotometer. (B) RIN-m5F cells were pulsed with ^3H-myristic acid (5 Cim1^−1) for 16 hours. After washing, the cells were stimulated with glucose, cytopiloyne, PMA and glimepiride. Total lipids were separated on a silica thin layer plate. DAG and cholesterol were visualized with iodine vapor and identified by their standards. (C) RIN-m5F cells were incubated with vehicle (Mock), cytopiloyne (CP, 3, 7 and 14 μM), PMA (1 μM) and 16.7 mM (HG). Membrane or cytosolic proteins were subjected to Western blot with anti-PKCα and anti-Actin antibodies. (D) RIN-m5F cells were incubated with vehicle (Mock), cytopiloyne (CP 7 μM) and PMA (1 μM). After lysis, total lystaes were subjected to Western blot with anti-PKCα, anti-phospho-PKCα and anti-Actin antibodies.

[6] = tested on: RIN-m5F cells; assay: DAG and cholesterol generation (3H-myristic acid, TLC) in RIN-m5F cells; assay type: cell-based, rat; settings: versus vehicle control, glucose 16.7 mM
Description: as §1
RIN-m5F cells were incubated with ^3H-myristic acid ([…]) for 16 hours. After washing, the cells were treated with glucose, cytopiloyne, PMA and glimepiride. Total lipids were extracted as previously described. Radioactive DAG was separated on a silica thin layer plate with the first developer of ethylacetate: acetic acid: triethylpentane (9:2:5) and the second developer of hexane: diethylether: methanol: acetic acid (90:20:3:2). The spot of DAG was visualized with iodine vapor and identified by DAG standard.

[7] = tested on: β-cell line; assay: Insulin secretion in β-cell line (unpublished data); assay type: cell-based
[8] = tested on: STZ-treated C57BL mice; assay: Insulin sensitizer test: oral dose before insulin injection in STZ-treated C57BL mice; assay type: in vivo, mouse; settings: cytopiloyne 0.5 and 2.5, glimepiride 2.5, metformin 60 mgkg^−1 oral; insulin 2.5 IUkg^−1
Description: (§2) FIGS. 3A-C show cytopiloyne-mediated insulin release depends on pancreatic islet cells. (A) Rat pancreatic islet cells were incubated with glucose-free KRB buffer containing vehicle or cytopiloyne at 1.5, 3, 7, 14, 28 and 42 μM (FIG. 3A-i). Similarly, rat pancreatic islet cells were incubated with KRB buffer containing vehicle, glimepiride (GLM, 10 μM) or cytopiloyne at 1.5, 3, 7, 14, 28 and 42 μM in the presence of 3.3 mM glucose (LG, FIG. 3A-ii) or 16.7 mM glucose (HG, FIG. 3A-iii). The insulin levels were determined using an insulin ELISA kit. The data presented as mean±SEM of 3 independent experiments. (B) Fed C57BL mice, which had already received an injection of STZ, were administered with an oral dose of vehicle, cytopiloyne (CP, 0.1, 0.5 and 2.5 mgkg^−1), and an intraperitoneal injection of insulin (Ins, 2.5 IUkg^−1). Blood sugar levels in the STZ-treated mice were determined using a glucometer. (C) C57BL mice, which had already received STZ, were orally administered with a single dose of vehicle, cytopiloyne (CP, 0.5 and 2.5 mgkg^−1), glimepiride (GLM, 2.5 mgkg^−1), or metformin (60 mgkg^−1), followed by an intraperitoneal injection with insulin (Ins). Blood sugar levels in the STZ-treated mice were determined using a glucometer. All the results from 3 independent experiments are expressed as mean±SEM, and P<0.05 was considered to be statistically significant (*). The number of mice (n) is indicated in parentheses.
To deplete pancreatic β-cells in mice, 6-week-old C57BL females (NLAC, Taipei, Taiwan) were intraperitoneally injected with STZ at 200 mgkg^−1. STZ-treated females with postprandial blood sugar over 500 mgdl^−1 were grouped. […] Blood glucose levels were monitored for 4 h. To distinguish sensitizer activity from releaser activity of cytopiloyne, STZ-treated C57BL mice were tube-fed with vehicle, glimepiride (2.5 mgkg^−1), metformin (60 mgkg^−1) or cytopiloyne (0.5 and 2.5 mgkg^−1) 1 h before insulin injection (2.5 IUkg^−1). Blood glucose levels in the mice were monitored from 0 to 4 h after insulin injection.

[9] = tested on: STZ-treated C57BL mice; assay: Blood glucose in STZ-treated (β-cell-depleted) C57BL mice; assay type: in vivo, mouse; settings: cytopiloyne oral 0.1, 0.5 and 2.5 mgkg^−1; insulin i.p. 2.5 IUkg^−1
Description: as §2, with “(C) C57BL mice, which had already received STZ, were orally administered with a single dose of vehicle, cytopiloyne (CP, 0.5 and 2.5 mgkg^−1), glimepiride (GLM, 2.5 mgkg^−1), or metformin (60 mgkg^−1), followed by an intraperitoneal injection with insulin (Ins).” left out, “The number of mice (n) is indicated in parentheses.” left out
To deplete pancreatic β-cells in mice, 6-week-old C57BL females (NLAC, Taipei, Taiwan) were intraperitoneally injected with STZ at 200 mgkg^−1. […] Blood glucose levels were monitored for 4 h. […] Blood glucose levels in the mice were monitored from 0 to 4 h after insulin injection.

## CN(C)CCCn1cc(C2=C(c3c[nH]c4ccccc34)C(=O)NC2=O)c2ccccc21 [GF109203X]
[1]; with cytopiloyne, glucose or PMA
  effect of PKC inhibitor on mediated insulin transcription: completely abolished cytopiloyne-, glucose- and PMA-mediated insulin transcription
[2]; with cytopiloyne or PMA
  effect of PKC inhibitor on induced insulin secretion: inhibited cytopiloyne- and PMA-induced insulin secretion

## CN(CCOc1ccc(CC2SC(=O)NC2=O)cc1)c1ccccn1 (stereo not shown) [rosiglitazone]
[3]
  adiponectin expression level, times control levels: 21 times
[4]
  aP2 expression, times of the control: 11 times

## CCCCCCCCCCCCCC(=O)O[C@@H]1[C@@H](C)[C@@]2(O)[C@@H](C=C(CO)C[C@]3(O)C(=O)C(C)=C[C@@H]23)[C@@H]2C(C)(C)[C@]12OC(C)=O [PMA, phorbol 12-myristate 13-acetate, reference compound]
[5]; cytopiloyne 7 μM
  phosphorylation of PKCα: increased phosphorylation of PKCα
[5]; cytopiloyne 3, 7 and 14 μM
  translocation of PKCα from cytoplasm to membrane: increased the translocation of PKCα from cytoplasm to membrane
[1]; glucose 16.7 mM
  insulin transcription in HIT-T15 cells: stimulated insulin transcription
[2]; glucose 16.7 mM
  insulin secretion in β-cell line: stimulated insulin secretion
[6]
  level of DAG: significantly increased the level of DAG

## cytopiloyne aglycone
[7]
  induction of insulin secretion relative to cytopiloyne: less effective than cytopiloyne in inducing insulin secretion
  insulin secretion in β-cell line: did stimulate insulin secretion in β-cell line to some extent

## CN(C)C(=N)N=C(N)N [metformin]
[8]
  blood sugar lowering when dosed 60 min before insulin injection: significantly reduced blood glucose levels

## insulin: Insulin purchased from Novo Nordisk, injected intraperitoneally
[9]
  reduction of hyperglycemia / blood glucose in β-cell-depleted mice: still diminished blood glucose levels
